Values of other authors in US20180221406A1, “THERAPEUTIC COMBINATIONS OF ANTIVIRAL AND ANTI-INFLAMMATORY THERAPIES” (Foresight Biotherapeutics, Inc., priority 2015, published 2018).

How the values were obtained:
[1] = test system: acute rhinosinusitis principally of viral origin; details: in vivo
[2] = test system: respiratory syncytial virus (RSV); details: in vivo

SMILES | Efficacy in uncomplicated acute rhinosinusitis [1] | Efficacy in bronchiolitis caused by RSV [2]
C[C@]12C=CC(=O)C=C1CC[C@@H]1[C@@H]2[C@@H](O)C[C@@]2(C)[C@H]1CC[C@]2(O)C(=O)CO [prednisolone] | ineffective | –
C[C@@H]1C[C@H]2[C@@H]3CCC4=CC(=O)C=C[C@]4(C)[C@@]3(F)[C@@H](O)C[C@]2(C)[C@@]1(O)C(=O)CO [dexamethasone, (8S,9R,10S,11S,13S,14S,16R,17R)-9-fluoro-11,17-dihydroxy-17-(2-hydroxyacetyl)-10,13,16-trimethyl-6,7,8,11,12,14,15,16-octahydrocyclopenta[a]phenanthren-3-one] | – | ineffective
